The record followed here is patent US10722514B2 (FLX Bio, Inc., priority 2017, dated 2020).

This test deals with T1, recombinant full-length USP7 (Homo sapiens, UniProt Q93009).
T1 construct: A 25 μl reaction volume containing recombinant full-length USP7 (62 pM)
The experiment in a line: USP7-mediated ubiquitin-rhodamine cleavage assay. Type of test: biochemical. Particulars: recombinant full-length USP7 62 pM, ubiquitin-rhodamine 100 nM, 1 hour reaction at room temperature. Summed up:
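IC50 values came from fluorescence measured after a 1 h room-temperature reaction of 62 pM enzyme with 100 nM ubiquitin-rhodamine, following 30 min compound preincubation; fits used four parameters.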

The mark [1] stands for this setting: 30-minute pre-incubation, read-out: Potency (USP7 IC50).
Setting [2] is: 30-minute incubation with compound, read-out: Potency: USP7 IC50.

Where a name gives a salt, the structure may show the parent alone. Read-outs that look alike come from different tables or passages of the source.

T1 sequence (Q93009 whole entry): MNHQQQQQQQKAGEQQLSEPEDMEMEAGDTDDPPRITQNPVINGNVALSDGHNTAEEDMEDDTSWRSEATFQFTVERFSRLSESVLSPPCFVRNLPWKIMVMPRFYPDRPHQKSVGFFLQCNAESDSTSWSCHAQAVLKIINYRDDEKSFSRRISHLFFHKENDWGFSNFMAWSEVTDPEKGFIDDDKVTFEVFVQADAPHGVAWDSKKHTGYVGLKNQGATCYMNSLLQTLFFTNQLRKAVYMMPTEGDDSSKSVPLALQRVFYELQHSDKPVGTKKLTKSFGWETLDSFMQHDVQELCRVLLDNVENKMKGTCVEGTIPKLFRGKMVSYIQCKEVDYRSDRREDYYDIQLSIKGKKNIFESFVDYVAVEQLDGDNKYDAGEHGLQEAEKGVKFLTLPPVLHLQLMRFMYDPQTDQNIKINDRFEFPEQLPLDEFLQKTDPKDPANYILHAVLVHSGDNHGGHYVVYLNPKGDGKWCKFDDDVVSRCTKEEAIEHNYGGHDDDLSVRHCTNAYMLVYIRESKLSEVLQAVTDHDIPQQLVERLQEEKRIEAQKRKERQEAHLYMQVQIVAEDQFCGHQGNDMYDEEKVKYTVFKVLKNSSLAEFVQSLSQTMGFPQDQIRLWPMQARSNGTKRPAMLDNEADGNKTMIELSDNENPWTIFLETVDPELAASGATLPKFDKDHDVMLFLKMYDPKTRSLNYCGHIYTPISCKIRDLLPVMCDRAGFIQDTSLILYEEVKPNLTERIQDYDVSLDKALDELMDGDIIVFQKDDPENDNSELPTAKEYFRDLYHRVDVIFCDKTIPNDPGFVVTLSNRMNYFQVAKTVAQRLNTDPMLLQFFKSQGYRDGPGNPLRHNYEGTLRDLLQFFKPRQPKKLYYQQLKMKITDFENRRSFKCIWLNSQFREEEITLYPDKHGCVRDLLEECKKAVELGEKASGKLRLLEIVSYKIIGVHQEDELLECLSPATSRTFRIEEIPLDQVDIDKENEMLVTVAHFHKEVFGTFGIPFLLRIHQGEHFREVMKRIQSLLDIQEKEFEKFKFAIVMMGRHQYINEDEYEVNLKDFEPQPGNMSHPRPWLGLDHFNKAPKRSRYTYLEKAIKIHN

For the compound `Cc1cc(Cl)cc(-c2ccnc3cc(CN4C(=O)CCC4=O)sc23)c1O[C@H]1CC[C@@H](C)NC1` [Example 416, 1-[[7-[5-chloro-3-methyl-2-[[(3S,6R)-6-methyl-3-piperidyl]oxy]phenyl]thieno[3,2-b]pyridin-2-yl]methyl]pyrrolidine-2,5-dione], under setting [1], the IC50 was less than 1000 nM. On to `Cc1cc(Cl)cc(-c2ncnc3cc(CN4C(=O)C5CC5C4=O)sc23)c1O[C@H]1CCCNC1` (stereo partly drawn) [Example 245, 3-((4-(5-Chloro-3-methyl-2-(((S)-piperidin-3-yl)oxy)phenyl)thieno[3,2-d]pyrimidin-6-yl)methyl)-3-azabicyclo[3.1.0]hexane-2,4-dione], for which the IC50 under setting [2] was less than 1000 nM.

For the compound `Cc1cc(Cl)cc(-c2ccnc3cc(CN4C(=O)C5CCCCN5C4=O)sc23)c1OC1CCNCC1` (stereo not drawn) [Example 228, 2-((7-(5-Chloro-3-methyl-2-(piperidin-4-yloxy)phenyl)thieno[3,2-b]pyridin-2-yl)methyl)tetrahydroimidazo[1,5-a]pyridine-1,3(2H,5H)-dione], the IC50 under setting [2] was less than 1000 nM. As for `Cc1cc(C(F)(F)F)cc(-c2ccnc3cc(Cn4c(=O)ccn(C)c4=O)sc23)c1O[C@@H]1CC[C@@H](N)C1` [Example 456, 3-[[7-[2-[(1R,3R)-3-aminocyclopentoxy]-3-methyl-5-(trifluoromethyl)phenyl]thieno[3,2-b]pyridin-2-yl]methyl]-1-methyl-pyrimidine-2,4-dione dihydrochloride], the IC50 under setting [1] was less than 1000 nM. On to `CC(=O)NCc1cc2nccc(-c3cc(Cl)cc(C)c3O[C@@H]3CNC[C@@H]3F)c2s1` [Example 91, N-((7-(5-Chloro-2-(((3R,4S)-4-fluoropyrrolidin-3-yl)oxy)-3-methylphenyl)thieno[3,2-b]pyridin-2-yl)methyl)acetamide], for which the IC50 under setting [2] was less than 1000 nM.

For the compound `Cc1cc(Cl)cc(-c2ccnc3cc(CN4C(=O)C5C(C4=O)C5(C)C)sc23)c1OC1CN(C)CC1(C)F` (stereo not drawn) [Example 375, 3-[[7-[5-chloro-2-(4-fluoro-1,4-dimethyl-pyrrolidin-3-yl)oxy-3-methyl-phenyl]thieno[3,2-b]pyridin-2-yl]methyl]-6,6-dimethyl-3-azabicyclo[3.1.0]hexane-2,4-dione dihydrochloride], the IC50 under setting [2] was less than 1000 nM. `Cc1cc(C(F)(F)F)cc(-c2ccnc3cc(Cn4c(=O)ccn(C)c4=O)sc23)c1O[C@H]1CCCNC1` [Example 445]: the IC50 under setting [1] is less than 1000 nM.

Regarding `Cc1cc([N+](=O)[O-])cc(-c2ccnc3cc(Cn4c(=O)ccn(CC(F)(F)F)c4=O)sc23)c1Oc1cn[nH]c1` [Example 614], the IC50 under setting [1] is less than 1000 nM.

On to `Cc1cc(Cl)cc(-c2ccnc3cc(Cn4c(=O)ccn(CC(F)(F)F)c4=O)sc23)c1OCC1(C(F)F)CNC1` [Example 673, 3-[[7-[5-chloro-2-[[3-(difluoromethyl)azetidin-3-yl]methoxy]-3-methyl-phenyl]thieno[3,2-b]pyridin-2-yl]methyl]-1-(2,2,2-trifluoroethyl)pyrimidine-2,4-dione], for which, under “30-minute incubation, read-out: Potency (USP7 IC50)”, the IC50 was less than 1000 nM.

Take `Cc1cc(Cl)cc(-c2ccnc3cc(CO)sc23)c1OCCC1CNC1` [Example 30, (7-(2-(2-(Azetidin-3-yl)ethoxy)-5-chloro-3-methylphenyl)thieno[3,2-b]pyridin-2-yl)methanol]: the IC50 under setting [2] is more than 30000 nM. With `Cc1cc(Cl)cc(-c2ccnc3cc(CN4C(=O)C5CC5C4=O)sc23)c1O[C@@H]1CNC[C@@H]1C` (stereo partly drawn) [Example 327, 3-[[7-[5-chloro-3-methyl-2-[(3S,4S)-4-methylpyrrolidin-3-yl]oxy-phenyl]thieno[3,2-b]pyridin-2-yl]methyl]-3-azabicyclo[3.1.0]hexane-2,4-dione], the IC50 under setting [2] is less than 1000 nM. As to `Cc1cc(Cl)cc(-c2ccnc3cc(CN4C(=O)CCC4=O)sc23)c1O[C@H]1CCNC[C@@H]1F` [Example 208, 1-((7-(5-Chloro-2-(((3S,4S)-3-fluoropiperidin-4-yl)oxy)-3-methylphenyl)thieno[3,2-b]pyridin-2-yl)methyl)pyrrolidine-2,5-dione], the IC50 under setting [2] is less than 1000 nM. With `Cc1cc(Cl)cc(-c2ccnc3cc(CN4C(=O)C5C(C4=O)C5(C)C)sc23)c1O[C@@H]1CCNC[C@H]1F` (stereo partly drawn) [Example 294, 3-[[7-[5-chloro-2-[[(3R,4R)-3-fluoro-4-piperidyl]oxy]-3-methyl-phenyl]thieno[3,2-b]pyridin-2-yl]methyl]-6,6-dimethyl-3-azabicyclo[3.1.0]hexane-2,4-dione; 2,2,2-trifluoroacetic acid], the IC50 under setting [2] is less than 1000 nM. Take `Cc1cc(Cl)cc(-c2ccnc3cc(CN4C(=O)CCC4C(F)(F)F)sc23)c1O[C@@H]1CNC[C@@H]1F` (stereo partly drawn) [Example 147, 1-((7-(5-Chloro-2-(((3R,4S)-4-fluoropyrrolidin-3-yl)oxy)-3-methylphenyl)thieno[3,2-b]pyridin-2-yl)methyl)-5-(trifluoromethyl)pyrrolidin-2-one]: the IC50 under setting [2] is less than 1000 nM. As for `N#Cc1cc(Cl)c(O[C@@H]2CNC[C@@H]2F)c(-c2ccnc3cc(CN4C(=O)CCC4=O)sc23)c1` [Example 122, 3-Chloro-5-(2-((2,5-dioxopyrrolidin-1-yl)methyl)thieno[3,2-b]pyridin-7-yl)-4-(((3R,4S)-4-fluoropyrrolidin-3-yl)oxy)benzonitrile], the IC50 under setting [2] was less than 1000 nM. `Cc1cc(Cl)cc(-c2ccnc3cc(Cn4c(=O)c(F)cn(C)c4=O)sc23)c1O[C@@H]1CNC[C@@H]1F` [Example 470, 3-[[7-[5-chloro-2-[(3R,4S)-4-fluoropyrrolidin-3-yl]oxy-3-methyl-phenyl]thieno[3,2-b]pyridin-2-yl]methyl]-5-fluoro-1-methyl-pyrimidine-2,4-dione]: the IC50 under setting [1] is less than 1000 nM. Regarding `Cc1cc(Cl)cc(-c2ncnc3cc(CN4C(=O)C5C(C4=O)C5(C)C)sc23)c1O[C@H]1CC[C@H](C)NC1` (stereo partly drawn) [Example 339, 3-[[4-[5-chloro-3-methyl-2-[[(3S,6S)-6-methyl-3-piperidyl]oxy]phenyl]thieno[3,2-d]pyrimidin-6-yl]methyl]-6,6-dimethyl-3-azabicyclo[3.1.0]hexane-2,4-dione dihydrochloride], the IC50 under setting [2] is less than 1000 nM. The same measure, in the same setting: next, `CCC(O)c1cc2nccc(-c3cc(Cl)cc(C)c3OCC3(CC)CNC3)c2s1` (stereo not drawn) [Example 38, 1-(7-(5-Chloro-2-((3-ethylazetidin-3-yl)methoxy)-3-methylphenyl)thieno[3,2-b]pyridin-2-yl)propan-1-ol]: less than 1000 nM. Still for that read-out and setting: next, `Cc1cc(Cl)cc(-c2ccnc3cc(CN4C(=O)C5C(C4=O)C5(C)C)sc23)c1OC1CCNC1(C)C` (stereo not drawn) [Example 368, 3-[[7-[5-chloro-2-(2,2-dimethylpyrrolidin-3-yl)oxy-3-methyl-phenyl]thieno[3,2-b]pyridin-2-yl]methyl]-6,6-dimethyl-3-azabicyclo[3.1.0]hexane-2,4-dione]: less than 1000 nM; `Cc1cc(Cl)cc(-c2ncnc3cc(Cn4c(=O)ccn(C)c4=O)sc23)c1O[C@H]1CCCNC1` [Example 251, (S)-3-((4-(5-Chloro-3-methyl-2-(piperidin-3-yloxy)phenyl)thieno[3,2-d]pyrimidin-6-yl)methyl)-1-methylpyrimidine-2,4(1H,3H)-dione]: less than 1000 nM; `Cc1cc(Cl)cc(-c2ccnc3cc(CN4C(=O)C5C(C4=O)C5(C)C)sc23)c1O[C@@H]1CNCC[C@H]1C` (stereo partly drawn) [Example 341, 3-[[7-[5-chloro-3-methyl-2-[[(3S,4R)-4-methyl-3-piperidyl]oxy]phenyl]thieno[3,2-b]pyridin-2-yl]methyl]-6,6-dimethyl-3-azabicyclo[3.1.0]hexane-2,4-dione]: less than 1000 nM. Still for that read-out and setting: next, `Cc1cc(Cl)cc(-c2ccnc3cc(CN4C(=O)C5C(C4=O)C5(C)C)sc23)c1OCC1(C)CNC1` (stereo not drawn) [Example 400, 3-[[7-[5-chloro-3-methyl-2-[(3-methylazetidin-3-yl)methoxy]phenyl]thieno[3,2-b]pyridin-2-yl]methyl]-6,6-dimethyl-3-azabicyclo[3.1.0]hexane-2,4-dione]: less than 1000 nM.

On to `Cc1cc(Cl)cc(-c2ccnc3cc([C@H](C)N4C(=O)CCC4=O)sc23)c1O[C@@H]1CCNC[C@H]1F` [Example 289, 1-[(1S)-1-[7-[5-chloro-2-[[(3R,4R)-3-fluoro-4-piperidyl]oxy]-3-methyl-phenyl]thieno[3,2-b]pyridin-2-yl]ethyl]pyrrolidine-2,5-dione; 2,2,2-trifluoroacetic acid], for which the IC50 under setting [2] is less than 1000 nM.

In the case of `Cc1cc(C#N)cc(-c2ncnc3ccsc23)c1OCC1(C)CNC1` [Example 24, 3-Methyl-4-((3-methylazetidin-3-yl)methoxy)-5-(thieno[3,2-d]pyrimidin-4-yl)benzonitrile], the IC50 under setting [2] was 10000 to 30000 nM. Turning to `Cc1cc(Cl)cc(-c2ccnc3cc(Cn4c(=O)ccn(CC(F)(F)F)c4=O)sc23)c1OCC1COC1` [Example 669, 3-[[7-[5-chloro-3-methyl-2-(oxetan-3-ylmethoxy)phenyl]thieno[3,2-b]pyridin-2-yl]methyl]-1-(2,2,2-trifluoroethyl)pyrimidine-2,4-dione], under setting [1], the IC50 was less than 1000 nM. For `Cc1cc(Cl)cc(-c2ccnc3cc(Cn4c(=O)ccn(CC(F)(F)F)c4=O)sc23)c1O[C@@H]1CCNC[C@H]1C` [Example 275, 3-((7-(5-Chloro-3-methyl-2-(((3R,4R)-3-methylpiperidin-4-yl)oxy)phenyl)thieno[3,2-b]pyridin-2-yl)methyl)-1-(2,2,2-trifluoroethyl)pyrimidine-2,4(1H,3H)-dione], the IC50 under setting [2] was less than 1000 nM. Consider `CCC(O)c1cc2nccc(-c3cc(Cl)cc(C)c3OC(C)C3CNC3)c2s1` (stereo not drawn) [Example 34, 1-(7-(2-(1-(Azetidin-3-yl)ethoxy)-5-chloro-3-methylphenyl)thieno[3,2-b]pyridin-2-yl)propan-1-ol], for which the IC50 under setting [2] lay within 10000 to 30000 nM.

By IC50 is commonly meant the concentration at which inhibition is half-maximal.
